In the kinase profiling compilation of Christmann-Franck et al. (2016):

What was measured:
Experiment in all cases: radiometric filter-binding kinase assay, Kinase HotSpot
Details in all cases: compound 0.5 µM; ATP 10 µM
JAK3 JH1 JH2 (human) = JAK3 JH1 JH2 (human) (UniProt P52333)
CDC42BPB (human) = CDC42BPB (human) (UniProt Q9Y5S2)
ADRBK2 (human) = ADRBK2 (human) (UniProt P35626)
CSNK1A1 (human) = CSNK1A1 (human) (UniProt P48729)
NLK (human) = NLK (human) (UniProt Q9UBE8)
AURKA (human) = AURKA (human) (UniProt O14965)
FLT1 (human) = FLT1 (human) (UniProt P17948)
TAOK2 (human) = TAOK2 (human) (UniProt Q9UL54)
CSNK1E (human) = CSNK1E (human) (UniProt P49674)
ACVR1B (human) = ACVR1B (human) (UniProt P36896)
PRKCA (human) = PRKCA (human) (UniProt P17252)
ABL2 (human) = ABL2 (human) (UniProt P42684)
HIPK2 (human) = HIPK2 (human) (UniProt Q9H2X6)
STK11 (human) = STK11 (human) (UniProt Q15831)
MAPKAPK5 (human) = MAPKAPK5 (human) (UniProt Q8IW41)
EPHA8 (human) = EPHA8 (human) (UniProt P29322)
EPHB3 (human) = EPHB3 (human) (UniProt P54753)
MAPK9 (human) = MAPK9 (human) (UniProt P45984)
MYLK (human) = MYLK (human) (UniProt Q15746)
PIM2 (human) = PIM2 (human) (UniProt Q9P1W9)
STK3 (human) = STK3 (human) (UniProt Q13188)
TXK (human) = TXK (human) (UniProt P42681)
GRK6 (human) = GRK6 (human) (UniProt P43250)
MET (human) = MET (human) (UniProt P08581)
GRK4 (human) = GRK4 (human) (UniProt P32298)
MERTK (human) = MERTK (human) (UniProt Q12866)
RIPK2 (human) = RIPK2 (human) (UniProt O43353)
RPS6KA1 KD1 KD2 (human) = RPS6KA1 KD1 KD2 (human) (UniProt Q15418)
CDK2 CCNA2 (human) = CDK2 CCNA2 (human) (UniProt P24941+P20248)
NTRK1 (human) = NTRK1 (human) (UniProt P04629)
KDR (human) = KDR (human) (UniProt P35968)
NEK3 (human) = NEK3 (human) (UniProt P51956)
PHKG2 (human) = PHKG2 (human) (UniProt P15735)
MAP3K8 (human) = MAP3K8 (human) (UniProt P41279)
EPHA4 (human) = EPHA4 (human) (UniProt P54764)
STK33 (human) = STK33 (human) (UniProt Q9BYT3)
BRSK1 (human) = BRSK1 (human) (UniProt Q8TDC3)
MARK2 (human) = MARK2 (human) (UniProt Q7KZI7)
NUAK2 (human) = NUAK2 (human) (UniProt Q9H093)
CSNK1G3 (human) = CSNK1G3 (human) (UniProt Q9Y6M4)
CDK9 CCNT1 (human) = CDK9 CCNT1 (human) (UniProt P50750+O60563)
NUAK1 (human) = NUAK1 (human) (UniProt O60285)

Chain of CSNK1G3 (human) (Q9Y6M4 whole entry, looked up): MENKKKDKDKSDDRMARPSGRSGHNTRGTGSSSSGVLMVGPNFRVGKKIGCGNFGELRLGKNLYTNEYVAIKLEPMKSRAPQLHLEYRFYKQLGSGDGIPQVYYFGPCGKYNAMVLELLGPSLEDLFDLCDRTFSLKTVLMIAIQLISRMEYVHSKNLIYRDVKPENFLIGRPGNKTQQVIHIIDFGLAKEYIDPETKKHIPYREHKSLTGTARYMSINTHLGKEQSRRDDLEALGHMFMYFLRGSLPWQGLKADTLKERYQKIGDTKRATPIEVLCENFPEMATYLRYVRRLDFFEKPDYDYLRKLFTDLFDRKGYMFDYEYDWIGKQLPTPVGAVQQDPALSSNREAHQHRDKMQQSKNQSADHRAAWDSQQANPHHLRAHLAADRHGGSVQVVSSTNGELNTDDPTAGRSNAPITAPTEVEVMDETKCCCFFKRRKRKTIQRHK
Chain of CSNK1A1 (human) (P48729 whole entry, looked up): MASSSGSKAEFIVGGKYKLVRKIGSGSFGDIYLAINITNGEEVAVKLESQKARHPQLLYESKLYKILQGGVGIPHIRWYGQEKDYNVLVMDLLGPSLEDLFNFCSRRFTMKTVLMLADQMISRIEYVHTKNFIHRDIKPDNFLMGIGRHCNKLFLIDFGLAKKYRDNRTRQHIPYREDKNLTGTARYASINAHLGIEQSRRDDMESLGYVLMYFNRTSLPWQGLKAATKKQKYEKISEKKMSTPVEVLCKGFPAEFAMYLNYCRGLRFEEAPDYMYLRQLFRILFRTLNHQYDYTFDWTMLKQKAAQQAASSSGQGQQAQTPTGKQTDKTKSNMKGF
Chain of PIM2 (human) (Q9P1W9 whole entry, looked up): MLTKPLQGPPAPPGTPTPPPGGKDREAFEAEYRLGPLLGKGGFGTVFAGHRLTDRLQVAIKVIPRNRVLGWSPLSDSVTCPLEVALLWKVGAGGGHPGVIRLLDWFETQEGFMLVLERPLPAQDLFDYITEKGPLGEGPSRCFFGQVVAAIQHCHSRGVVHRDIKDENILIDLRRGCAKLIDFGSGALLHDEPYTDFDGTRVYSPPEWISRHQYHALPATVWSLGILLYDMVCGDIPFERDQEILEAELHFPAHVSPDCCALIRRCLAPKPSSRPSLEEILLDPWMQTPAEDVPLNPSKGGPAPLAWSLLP
Chain of CDK9 CCNT1 (human) (O60563 whole entry, looked up): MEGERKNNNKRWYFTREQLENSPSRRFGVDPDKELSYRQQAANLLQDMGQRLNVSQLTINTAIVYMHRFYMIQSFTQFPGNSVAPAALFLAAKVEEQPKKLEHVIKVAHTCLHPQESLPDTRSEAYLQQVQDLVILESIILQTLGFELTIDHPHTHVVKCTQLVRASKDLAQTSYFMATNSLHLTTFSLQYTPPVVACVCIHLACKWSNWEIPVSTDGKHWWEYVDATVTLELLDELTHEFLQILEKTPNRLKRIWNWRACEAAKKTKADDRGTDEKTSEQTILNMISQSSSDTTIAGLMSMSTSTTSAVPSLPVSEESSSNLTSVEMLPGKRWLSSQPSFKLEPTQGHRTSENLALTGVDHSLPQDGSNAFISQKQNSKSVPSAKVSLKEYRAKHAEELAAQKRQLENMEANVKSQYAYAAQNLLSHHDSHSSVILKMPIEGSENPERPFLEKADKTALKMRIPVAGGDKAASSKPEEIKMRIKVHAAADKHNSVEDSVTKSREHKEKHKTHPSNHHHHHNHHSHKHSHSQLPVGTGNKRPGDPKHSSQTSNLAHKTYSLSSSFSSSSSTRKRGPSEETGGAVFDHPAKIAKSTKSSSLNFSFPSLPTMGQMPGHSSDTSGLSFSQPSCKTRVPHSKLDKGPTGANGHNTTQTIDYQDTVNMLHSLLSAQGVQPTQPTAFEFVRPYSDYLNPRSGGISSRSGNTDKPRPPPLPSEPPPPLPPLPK
Chain of CDK9 CCNT1 (human) (P50750 whole entry, looked up): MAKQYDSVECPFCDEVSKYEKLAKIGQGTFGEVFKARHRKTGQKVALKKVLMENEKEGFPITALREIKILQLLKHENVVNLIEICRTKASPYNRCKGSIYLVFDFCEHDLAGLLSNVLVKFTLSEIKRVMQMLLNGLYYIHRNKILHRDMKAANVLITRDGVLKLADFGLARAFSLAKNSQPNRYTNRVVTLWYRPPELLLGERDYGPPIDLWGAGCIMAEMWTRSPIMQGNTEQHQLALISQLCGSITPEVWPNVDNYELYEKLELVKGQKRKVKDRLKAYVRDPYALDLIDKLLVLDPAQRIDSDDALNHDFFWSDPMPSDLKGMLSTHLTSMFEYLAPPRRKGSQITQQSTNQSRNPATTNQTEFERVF
Chain of MARK2 (human) (Q7KZI7 whole entry, looked up): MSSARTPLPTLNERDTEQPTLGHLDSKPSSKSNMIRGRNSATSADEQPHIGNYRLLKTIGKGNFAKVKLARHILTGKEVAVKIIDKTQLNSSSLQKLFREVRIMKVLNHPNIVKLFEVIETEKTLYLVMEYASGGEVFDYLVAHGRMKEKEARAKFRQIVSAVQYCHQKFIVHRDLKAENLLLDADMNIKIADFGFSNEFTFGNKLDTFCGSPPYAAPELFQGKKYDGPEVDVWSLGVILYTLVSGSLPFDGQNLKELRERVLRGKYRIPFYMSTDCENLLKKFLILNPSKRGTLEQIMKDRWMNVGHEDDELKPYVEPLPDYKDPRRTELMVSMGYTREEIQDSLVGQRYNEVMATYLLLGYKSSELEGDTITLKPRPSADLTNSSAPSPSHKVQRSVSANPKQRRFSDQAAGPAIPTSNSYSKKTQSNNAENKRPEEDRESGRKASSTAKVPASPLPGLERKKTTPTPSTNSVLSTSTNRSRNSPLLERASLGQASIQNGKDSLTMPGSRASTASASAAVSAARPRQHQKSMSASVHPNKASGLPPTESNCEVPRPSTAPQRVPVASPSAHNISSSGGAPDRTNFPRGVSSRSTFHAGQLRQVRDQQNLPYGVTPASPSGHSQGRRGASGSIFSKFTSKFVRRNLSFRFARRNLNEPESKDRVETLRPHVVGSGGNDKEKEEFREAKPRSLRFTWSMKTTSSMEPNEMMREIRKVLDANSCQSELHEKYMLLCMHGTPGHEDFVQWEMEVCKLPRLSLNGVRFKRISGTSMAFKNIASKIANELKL
Chain of STK11 (human) (Q15831 whole entry, looked up): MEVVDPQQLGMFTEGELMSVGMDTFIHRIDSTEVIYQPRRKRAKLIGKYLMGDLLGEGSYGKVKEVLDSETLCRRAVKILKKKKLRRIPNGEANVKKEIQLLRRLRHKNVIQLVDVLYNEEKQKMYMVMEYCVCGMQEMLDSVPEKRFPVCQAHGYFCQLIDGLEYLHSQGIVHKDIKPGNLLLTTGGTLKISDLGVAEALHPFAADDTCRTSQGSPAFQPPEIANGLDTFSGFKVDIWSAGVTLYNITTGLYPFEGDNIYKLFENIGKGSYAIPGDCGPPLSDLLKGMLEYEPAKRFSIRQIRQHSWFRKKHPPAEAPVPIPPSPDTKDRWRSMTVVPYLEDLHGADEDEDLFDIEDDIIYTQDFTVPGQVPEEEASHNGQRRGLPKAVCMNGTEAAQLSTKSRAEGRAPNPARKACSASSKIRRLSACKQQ
Chain of CDK2 CCNA2 (human) (P20248 whole entry, looked up, other chains not shown): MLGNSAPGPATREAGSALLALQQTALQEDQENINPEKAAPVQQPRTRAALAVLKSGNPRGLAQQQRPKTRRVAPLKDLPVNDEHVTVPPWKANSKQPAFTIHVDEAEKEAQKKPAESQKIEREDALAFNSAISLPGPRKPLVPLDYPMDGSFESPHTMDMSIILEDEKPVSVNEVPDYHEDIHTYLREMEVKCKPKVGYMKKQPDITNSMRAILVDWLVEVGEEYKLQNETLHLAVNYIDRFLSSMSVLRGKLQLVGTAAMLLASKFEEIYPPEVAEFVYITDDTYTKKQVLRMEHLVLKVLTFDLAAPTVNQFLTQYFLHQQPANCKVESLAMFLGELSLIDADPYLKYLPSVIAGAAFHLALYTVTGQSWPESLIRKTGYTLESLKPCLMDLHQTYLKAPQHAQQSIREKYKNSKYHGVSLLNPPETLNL
Chain of STK3 (human) (Q13188 whole entry, looked up): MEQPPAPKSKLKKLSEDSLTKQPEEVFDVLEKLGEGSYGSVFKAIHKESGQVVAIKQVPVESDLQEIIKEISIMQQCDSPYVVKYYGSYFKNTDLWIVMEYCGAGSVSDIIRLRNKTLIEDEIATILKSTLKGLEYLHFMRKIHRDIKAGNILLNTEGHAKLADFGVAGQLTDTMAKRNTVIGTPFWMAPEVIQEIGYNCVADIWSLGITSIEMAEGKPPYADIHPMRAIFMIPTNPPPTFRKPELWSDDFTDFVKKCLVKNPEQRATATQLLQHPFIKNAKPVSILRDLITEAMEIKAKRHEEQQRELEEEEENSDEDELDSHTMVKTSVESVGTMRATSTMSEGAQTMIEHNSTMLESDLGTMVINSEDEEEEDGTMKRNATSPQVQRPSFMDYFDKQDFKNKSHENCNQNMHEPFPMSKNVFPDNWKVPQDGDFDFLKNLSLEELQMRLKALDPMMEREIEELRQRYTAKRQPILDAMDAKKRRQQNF
Chain of NLK (human) (Q9UBE8 whole entry, looked up): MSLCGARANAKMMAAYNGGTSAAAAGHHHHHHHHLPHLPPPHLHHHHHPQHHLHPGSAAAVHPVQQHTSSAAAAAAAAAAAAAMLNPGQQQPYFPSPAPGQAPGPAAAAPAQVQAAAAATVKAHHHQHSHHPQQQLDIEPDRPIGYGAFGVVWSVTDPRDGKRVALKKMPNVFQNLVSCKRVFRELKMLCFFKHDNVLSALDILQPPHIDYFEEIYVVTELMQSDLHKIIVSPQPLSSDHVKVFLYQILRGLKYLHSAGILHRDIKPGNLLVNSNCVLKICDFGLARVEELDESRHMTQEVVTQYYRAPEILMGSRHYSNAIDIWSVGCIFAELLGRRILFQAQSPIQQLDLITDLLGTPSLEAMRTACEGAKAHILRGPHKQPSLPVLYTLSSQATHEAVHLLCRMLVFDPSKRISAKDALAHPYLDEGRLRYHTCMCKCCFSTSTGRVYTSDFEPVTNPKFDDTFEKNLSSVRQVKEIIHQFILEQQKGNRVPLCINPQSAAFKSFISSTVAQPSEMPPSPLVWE

Q: With `COc1ccc(-c2cnc3c(-c4ccsc4)cnn3c2)cc1` as the compound, how does the residual activity (JAK3 JH1 JH2 (human)) read?
A: 98.5%

Q: What about the residual activity (CDC42BPB (human)) of the same compound?
A: 83.4%

Q: And the residual activity (ADRBK2 (human))?
A: 97.8%

Q: And the residual activity (CSNK1A1 (human))?
A: 101%

Q: What about the residual activity (NLK (human)) of the same compound?
A: 74.5%

Q: And the residual activity (AURKA (human))?
A: 68%

Q: And the residual activity (FLT1 (human))?
A: 75.7%

Q: What about the residual activity (TAOK2 (human)) of the same compound?
A: 97.4%

Q: And the residual activity (CSNK1E (human))?
A: 86.3%

Q: What about the residual activity (ACVR1B (human)) of the same compound?
A: 100%

Q: And the residual activity (PRKCA (human))?
A: 101%

Q: What about the residual activity (ABL2 (human)) of the same compound?
A: 63.4%

Q: What about the residual activity (HIPK2 (human)) of the same compound?
A: 91.2%

Q: And the residual activity (STK11 (human))?
A: 95.9%

Q: What about the residual activity (MAPKAPK5 (human)) of the same compound?
A: 90.7%

Q: What about the residual activity (EPHA8 (human)) of the same compound?
A: 90.3%

Q: And the residual activity (EPHB3 (human))?
A: 99.4%

Q: What about the residual activity (MAPK9 (human)) of the same compound?
A: 104%

Q: What about the residual activity (MYLK (human)) of the same compound?
A: 102%

Q: And the residual activity (PIM2 (human))?
A: 105%

Q: And the residual activity (STK3 (human))?
A: 97.7%

Q: What about the residual activity (TXK (human)) of the same compound?
A: 85.2%

Q: And the residual activity (GRK6 (human))?
A: 99.9%

Q: And the residual activity (MET (human))?
A: 86.3%

Q: And the residual activity (GRK4 (human))?
A: 97%

Q: And the residual activity (MERTK (human))?
A: 81.2%

Q: What about the residual activity (RIPK2 (human)) of the same compound?
A: 56.8%

Q: And the residual activity (RPS6KA1 KD1 KD2 (human))?
A: 85.7%

Q: What about the residual activity (CDK2 CCNA2 (human)) of the same compound?
A: 83%

Q: And the residual activity (NTRK1 (human))?
A: 93.2%

Q: What about the residual activity (KDR (human)) of the same compound?
A: 79.8%

Q: And the residual activity (NEK3 (human))?
A: 87.7%

Q: And the residual activity (PHKG2 (human))?
A: 92.3%

Q: What about the residual activity (MAP3K8 (human)) of the same compound?
A: 105%

Q: What about the residual activity (EPHA4 (human)) of the same compound?
A: 87.6%

Q: And the residual activity (STK33 (human))?
A: 71.6%

Q: And the residual activity (BRSK1 (human))?
A: 81.5%

Q: What about the residual activity (MARK2 (human)) of the same compound?
A: 82.1%

Q: What about the residual activity (NUAK2 (human)) of the same compound?
A: 138%

Q: And the residual activity (CSNK1G3 (human))?
A: 102%

Q: And the residual activity (CDK9 CCNT1 (human))?
A: 73.8%

Q: And the residual activity (NUAK1 (human))?
A: 77.9%

Q: Which residual activity (JAK3 JH1 JH2 (human)) does the source give for `O=c1cc(-c2cccc3c2Sc2ccccc2S3)oc(N2CCOCC2)c1` here?
A: 108%

Q: What about the residual activity (CDC42BPB (human)) of the same compound?
A: 103%

Q: And the residual activity (ADRBK2 (human))?
A: 100%

Q: What about the residual activity (CSNK1A1 (human)) of the same compound?
A: 94.9%

Q: What about the residual activity (NLK (human)) of the same compound?
A: 108%

Q: What about the residual activity (AURKA (human)) of the same compound?
A: 91.7%

Q: What about the residual activity (FLT1 (human)) of the same compound?
A: 90.8%

Q: And the residual activity (TAOK2 (human))?
A: 101%

Q: And the residual activity (CSNK1E (human))?
A: 104%

Q: What about the residual activity (ACVR1B (human)) of the same compound?
A: 114%

Q: And the residual activity (PRKCA (human))?
A: 80.3%

Q: What about the residual activity (ABL2 (human)) of the same compound?
A: 92%

Q: What about the residual activity (HIPK2 (human)) of the same compound?
A: 105%

Q: And the residual activity (STK11 (human))?
A: 96.5%

Q: And the residual activity (MAPKAPK5 (human))?
A: 94.5%

Q: And the residual activity (EPHA8 (human))?
A: 110%

Q: What about the residual activity (EPHB3 (human)) of the same compound?
A: 105%

Q: And the residual activity (MAPK9 (human))?
A: 97.7%

Q: And the residual activity (MYLK (human))?
A: 102%

Q: What about the residual activity (PIM2 (human)) of the same compound?
A: 118%

Q: What about the residual activity (STK3 (human)) of the same compound?
A: 101%

Q: What about the residual activity (TXK (human)) of the same compound?
A: 106%

Q: And the residual activity (GRK6 (human))?
A: 83%

Q: What about the residual activity (MET (human)) of the same compound?
A: 107%

Q: What about the residual activity (GRK4 (human)) of the same compound?
A: 105%

Q: And the residual activity (MERTK (human))?
A: 97%

Q: What about the residual activity (RIPK2 (human)) of the same compound?
A: 114%

Q: What about the residual activity (RPS6KA1 KD1 KD2 (human)) of the same compound?
A: 97.6%

Q: And the residual activity (CDK2 CCNA2 (human))?
A: 101%

Q: And the residual activity (NTRK1 (human))?
A: 99.4%

Q: And the residual activity (KDR (human))?
A: 95.9%

Q: And the residual activity (NEK3 (human))?
A: 102%

Q: And the residual activity (PHKG2 (human))?
A: 98.6%

Q: What about the residual activity (MAP3K8 (human)) of the same compound?
A: 103%

Q: And the residual activity (EPHA4 (human))?
A: 101%

Q: What about the residual activity (STK33 (human)) of the same compound?
A: 93.3%

Q: What about the residual activity (BRSK1 (human)) of the same compound?
A: 98.2%

Q: And the residual activity (MARK2 (human))?
A: 86.3%

Q: And the residual activity (NUAK2 (human))?
A: 109%

Q: What about the residual activity (CSNK1G3 (human)) of the same compound?
A: 87.9%

Q: What about the residual activity (CDK9 CCNT1 (human)) of the same compound?
A: 100%

Q: What about the residual activity (NUAK1 (human)) of the same compound?
A: 93.1%

Q: What does the source list for `O=C1Nc2cc(Br)ccc2/C1=C1/Nc2ccccc2/C1=N\O`?
A: residual activity (JAK3 JH1 JH2 (human)): 53.3%; residual activity (CDC42BPB (human)): 97.5%; residual activity (ADRBK2 (human)): 104%; residual activity (CSNK1A1 (human)): 95.1%; residual activity (NLK (human)): 101%; residual activity (AURKA (human)): 17.1%; residual activity (FLT1 (human)): 75.1%; residual activity (TAOK2 (human)): 92.1%; residual activity (CSNK1E (human)): 83.7%; residual activity (ACVR1B (human)): 100%; residual activity (HIPK2 (human)): 96.2%; residual activity (STK11 (human)): 42.1%; residual activity (MAPKAPK5 (human)): 82.7%; residual activity (EPHA8 (human)): 97.6%; residual activity (EPHB3 (human)): 103%; residual activity (MAPK9 (human)): 80.3%; residual activity (MYLK (human)): 45%; residual activity (PIM2 (human)): 95.5%; residual activity (STK3 (human)): 20.5%; residual activity (TXK (human)): 27.7%; residual activity (GRK6 (human)): 79.9%; residual activity (MET (human)): 70%; residual activity (GRK4 (human)): 90.1%; residual activity (MERTK (human)): 79.4%; residual activity (RIPK2 (human)): 75.2%; residual activity (RPS6KA1 KD1 KD2 (human)): 47.2%; residual activity (CDK2 CCNA2 (human)): 7.66%; residual activity (NTRK1 (human)): 34.5%; residual activity (KDR (human)): 64.2%; residual activity (NEK3 (human)): 84.4%; residual activity (PHKG2 (human)): 92.5%; residual activity (MAP3K8 (human)): 101%; residual activity (EPHA4 (human)): 90.2%; residual activity (STK33 (human)): 69.4%; residual activity (BRSK1 (human)): 14.6%; residual activity (MARK2 (human)): 61.8%; residual activity (NUAK2 (human)): 73.4%; residual activity (CSNK1G3 (human)): 78.3%; residual activity (CDK9 CCNT1 (human)): 68.2%; residual activity (NUAK1 (human)): 15.7%
